The values below come from article PMC3268748, “A novel cold-active β-D-galactosidase from the Paracoccus sp. 32d - gene cloning, purification and characterization” (Microbial Cell Factories, 2011).

In the test the target is T1, BgaL; Paracoccus sp. 32d β-D-galactosidase (Paracoccus sp. 32d, UniProt D1LZK0).
T1 construct: E. coli LMG194, pBAD/Myc-His A with native stop codon (no tag), ion exchange purified; homodimer 161 kDa; GH2
T1 sequence (D1LZK0 1-731): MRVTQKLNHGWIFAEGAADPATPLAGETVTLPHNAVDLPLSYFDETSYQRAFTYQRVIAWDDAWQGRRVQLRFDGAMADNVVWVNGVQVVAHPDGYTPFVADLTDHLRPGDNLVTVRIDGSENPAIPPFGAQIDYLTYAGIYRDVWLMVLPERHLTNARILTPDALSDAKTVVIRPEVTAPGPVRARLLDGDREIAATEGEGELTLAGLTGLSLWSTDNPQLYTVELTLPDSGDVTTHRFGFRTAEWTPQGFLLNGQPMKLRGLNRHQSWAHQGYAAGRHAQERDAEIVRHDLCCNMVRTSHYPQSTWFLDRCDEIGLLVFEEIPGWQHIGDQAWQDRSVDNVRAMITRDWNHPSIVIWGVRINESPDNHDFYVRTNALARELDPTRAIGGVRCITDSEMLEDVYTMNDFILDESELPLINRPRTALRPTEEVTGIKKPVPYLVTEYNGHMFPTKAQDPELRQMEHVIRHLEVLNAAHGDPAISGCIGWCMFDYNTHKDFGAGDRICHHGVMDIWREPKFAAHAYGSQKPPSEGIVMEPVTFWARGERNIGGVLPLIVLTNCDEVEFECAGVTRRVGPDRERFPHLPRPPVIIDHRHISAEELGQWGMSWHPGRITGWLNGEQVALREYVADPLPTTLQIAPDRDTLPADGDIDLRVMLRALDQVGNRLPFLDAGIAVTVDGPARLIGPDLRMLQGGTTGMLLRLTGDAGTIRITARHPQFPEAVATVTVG
Put plainly: relative activity with added sugar. Type of test: biochemical.

Each structure is given as a SMILES string. Where two headings read alike, the source gives them in different places.

In the case of `OC[C@H]1OC(O)[C@H](O)[C@@H](O)[C@@H]1O` (some centres unmarked) [glucose], for the setting “read-out: Relative activity (%) / Glucose”, the activity at 100000 µM was determined as 38 ± 2%.
With `OC[C@H]1OC(O)[C@H](O)[C@@H](O)[C@H]1O` (some centres unmarked) [galactose], the activity at 100000 µM (read-out: Relative activity (%) / Galactose) is 52 ± 1%.
